Source: ChEMBL document CHEMBL3739370, “Synthesis and evaluation of amide, sulfonamide and urea benzisoxazole derivatives as potential atypical antipsychotics” (Medchemcomm, 2015)

What was measured:
D(2) dopamine receptor = D(2) dopamine receptor (Rattus norvegicus, UniProt P61169); experiment: Displacement of [3H]spiperone from dopamine D2 receptor in rat striatum
[1] = target: T1, 5-hydroxytryptamine receptor 1A (Rattus norvegicus, UniProt P19327); experiment: Displacement of [3H]8-OH-DPAT from 5HT1A receptor in rat brain cortex; type: tissue-based
T1 sequence (P19327 whole entry): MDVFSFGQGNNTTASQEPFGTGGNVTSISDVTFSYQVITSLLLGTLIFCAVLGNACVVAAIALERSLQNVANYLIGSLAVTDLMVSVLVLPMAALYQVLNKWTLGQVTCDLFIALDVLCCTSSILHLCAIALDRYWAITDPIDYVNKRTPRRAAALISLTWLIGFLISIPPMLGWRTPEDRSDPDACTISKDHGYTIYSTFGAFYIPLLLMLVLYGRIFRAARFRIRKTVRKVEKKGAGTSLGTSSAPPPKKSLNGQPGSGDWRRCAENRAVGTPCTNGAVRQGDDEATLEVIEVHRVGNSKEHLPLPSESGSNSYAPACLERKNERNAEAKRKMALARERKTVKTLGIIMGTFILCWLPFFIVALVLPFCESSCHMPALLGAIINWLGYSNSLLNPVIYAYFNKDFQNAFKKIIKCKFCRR

[2] = target: 5-hydroxytryptamine receptor 2A (Rattus norvegicus, UniProt P14842); experiment: Displacement of [3H]ketanserin from 5HT2A receptor in rat brain cortex; type: tissue-based
Mus musculus [3] = experiment: Antipsychotic activity in po dosed mouse assessed as reversal of apomorphine-induced climbing activity; type: functional
Mus musculus [4] = experiment: Antipsychotic activity in po dosed mouse assessed as reversal of MK-801-induced hyperactivity; type: functional
Mus musculus [5] = experiment: Antipsychotic activity in po dosed mouse assessed as reversal of DOI-induced head twitch activity; type: functional
Mus musculus [6] = experiment: Toxicity in po dosed mouse assessed as catalepsy; type: organism-based; details: in vivo
Mus musculus [7] = experiment: Selectivity ratio of ED50 for po dosed mouse assessed as catalepsy to ED50 for po dosed mouse assessed as reversal of apomorphine-induced climbing activity
Mus musculus [8] = experiment: Selectivity ratio of ED50 for po dosed mouse assessed as catalepsy to ED50 for po dosed mouse assessed as reversal of MK-801-induced hyperactivity

Chain of D(2) dopamine receptor (P61169 whole entry): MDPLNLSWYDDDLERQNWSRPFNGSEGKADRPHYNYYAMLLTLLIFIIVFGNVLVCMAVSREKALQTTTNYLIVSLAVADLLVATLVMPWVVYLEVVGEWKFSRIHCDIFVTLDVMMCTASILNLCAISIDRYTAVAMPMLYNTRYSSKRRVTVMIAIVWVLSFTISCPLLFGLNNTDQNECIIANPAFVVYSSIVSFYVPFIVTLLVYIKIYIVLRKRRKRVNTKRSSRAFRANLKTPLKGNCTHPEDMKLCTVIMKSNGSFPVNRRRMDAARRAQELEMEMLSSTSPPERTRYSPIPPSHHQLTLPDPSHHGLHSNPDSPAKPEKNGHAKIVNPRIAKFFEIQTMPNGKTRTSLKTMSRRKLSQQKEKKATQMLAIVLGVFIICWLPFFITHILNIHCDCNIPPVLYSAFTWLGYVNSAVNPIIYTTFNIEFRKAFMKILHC
Chain of 5-hydroxytryptamine receptor 2A (P14842 whole entry): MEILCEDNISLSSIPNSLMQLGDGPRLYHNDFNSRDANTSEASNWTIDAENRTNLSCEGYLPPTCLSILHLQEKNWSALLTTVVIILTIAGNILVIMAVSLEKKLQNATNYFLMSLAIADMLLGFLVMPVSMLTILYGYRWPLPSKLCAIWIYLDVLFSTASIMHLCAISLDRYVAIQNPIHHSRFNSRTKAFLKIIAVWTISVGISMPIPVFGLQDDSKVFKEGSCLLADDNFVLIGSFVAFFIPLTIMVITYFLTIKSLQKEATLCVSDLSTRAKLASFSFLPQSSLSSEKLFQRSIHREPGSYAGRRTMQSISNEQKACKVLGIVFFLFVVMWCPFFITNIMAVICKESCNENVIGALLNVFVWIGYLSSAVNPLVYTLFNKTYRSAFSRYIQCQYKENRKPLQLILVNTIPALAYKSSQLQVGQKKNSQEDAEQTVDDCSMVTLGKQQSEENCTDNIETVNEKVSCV

## Cc1ccc(S(=O)(=O)N2CCC(CN3CCC(c4noc5cc(F)ccc45)CC3)CC2)cc1
D(2) dopamine receptor
  Ki: 1290 nM
[1]
  Ki: > 10000 nM
[2]
  Ki: 1520 nM

## O=[N+]([O-])c1ccc(S(=O)(=O)N2CCCC(CN3CCC(c4noc5cc(F)ccc45)CC3)C2)cc1 (stereo not drawn)
D(2) dopamine receptor
  Ki: 1100 nM
[1]
  Ki: 990 nM
[2]
  Ki: 30.1 nM

## O=C(c1ccc(F)cc1)N1CCC(CN2CCC(c3noc4cc(F)ccc34)CC2)CC1
D(2) dopamine receptor
  Ki: 86.8 nM
[1]
  Ki: 157 nM
[2]
  Ki: 19 nM

## O=[N+]([O-])c1cccc(S(=O)(=O)N2CCC(CN3CCC(c4noc5cc(F)ccc45)CC3)CC2)c1
D(2) dopamine receptor
  Ki: 759 nM
[1]
  Ki: 917 nM
[2]
  Ki: 135 nM

## O=[N+]([O-])c1ccc(S(=O)(=O)N2CCC(CCN3CCC(c4noc5cc(F)ccc45)CC3)CC2)cc1
D(2) dopamine receptor
  Ki: > 10000 nM
[1]
  Ki: 1370 nM
[2]
  Ki: 66.8 nM

## CCN(C)C(=O)N1CCC(CN2CCC(c3noc4cc(F)ccc34)CC2)CC1
D(2) dopamine receptor
  Ki: > 10000 nM
[1]
  Ki: > 10000 nM
[2]
  Ki: 1100 nM

## O=C(Nc1ccc(Cl)cc1)N1CCC(CN2CCC(c3noc4cc(F)ccc34)CC2)CC1
D(2) dopamine receptor
  Ki: 85.6 nM
[1]
  Ki: 299 nM
[2]
  Ki: 6.8 nM

## COc1ccc(C(=O)N2CCC(CN3CCC(c4noc5cc(F)ccc45)CC3)CC2)cc1
D(2) dopamine receptor
  Ki: 1190 nM
[1]
  Ki: 2500 nM
[2]
  Ki: 121 nM

## O=S(=O)(c1ccc(F)cc1)N1CCC(CN2CCC(c3noc4cc(F)ccc34)CC2)CC1
D(2) dopamine receptor
  Ki: 211 nM
[1]
  Ki: 789 nM
[2]
  Ki: 368 nM

## O=S(=O)(c1ccccc1)N1CCC(CN2CCC(c3noc4cc(F)ccc34)CC2)CC1
D(2) dopamine receptor
  Ki: 2500 nM
[1]
  Ki: > 10000 nM
[2]
  Ki: > 10000 nM

## Cc1nc2n(c(=O)c1CCN1CCC(c3noc4cc(F)ccc34)CC1)CCCC2 [RISPERIDONE]
Mus musculus [3]
  ED50: 0.012 mg/kg
Mus musculus [4]
  ED50: 0.013 mg/kg
Mus musculus [5]
  ED50: 0.038 mg/kg
Mus musculus [6]
  ED50: 0.38 mg/kg

## O=C(c1ccc([N+](=O)[O-])cc1)N1CCC(CN2CCC(c3noc4cc(F)ccc34)CC2)CC1
D(2) dopamine receptor
  Ki: 195 nM
[1]
  Ki: 269 nM
[2]
  Ki: 71.8 nM

## O=C(/C=C/c1ccccc1)N1CCC(CN2CCC(c3noc4cc(F)ccc34)CC2)CC1
D(2) dopamine receptor
  Ki: > 10000 nM
[1]
  Ki: > 10000 nM
[2]
  Ki: 2110 nM

## O=C(CCCN1CCC(O)(c2ccc(Cl)cc2)CC1)c1ccc(F)cc1 [HALOPERIDOL]
Mus musculus [3]
  ED50: 0.17 mg/kg
Mus musculus [4]
  ED50: 0.14 mg/kg
Mus musculus [6]
  ED50: 0.47 mg/kg
Mus musculus [7]
  Ratio ED50: 2.8
Mus musculus [8]
  Ratio ED50: 3.4

## CN1CCN(C2=Nc3cc(Cl)ccc3Nc3ccccc32)CC1 [CLOZAPINE]
Mus musculus [3]
  ED50: 4.52 mg/kg
Mus musculus [4]
  ED50: 2.11 mg/kg
Mus musculus [6]
  ED50: 55.89 mg/kg

## O=[N+]([O-])c1ccccc1S(=O)(=O)N1CCC(CN2CCC(c3noc4cc(F)ccc34)CC2)CC1
D(2) dopamine receptor
  Ki: 590 nM
[1]
  Ki: 1010 nM
[2]
  Ki: 26.9 nM

## O=C(C1CC1)N1CCC(CN2CCC(c3noc4cc(F)ccc34)CC2)CC1
D(2) dopamine receptor
  Ki: > 10000 nM
[1]
  Ki: > 10000 nM
[2]
  Ki: 216 nM

## N#Cc1ccc(S(=O)(=O)N2CCC(CN3CCC(c4noc5cc(F)ccc45)CC3)CC2)cc1
D(2) dopamine receptor
  Ki: 190 nM
[1]
  Ki: 479 nM
[2]
  Ki: 113 nM

## Cc1ccc(NC(=O)N2CCC(CN3CCC(c4noc5cc(F)ccc45)CC3)CC2)cc1
D(2) dopamine receptor
  Ki: 178 nM
[1]
  Ki: 276 nM
[2]
  Ki: 26.9 nM

## CC(C)(C)C(=O)N1CCC(CN2CCC(c3noc4cc(F)ccc34)CC2)CC1
D(2) dopamine receptor
  Ki: > 10000 nM
[1]
  Ki: > 10000 nM
[2]
  Ki: 310 nM

## O=C(NCc1ccccc1)N1CCC(CN2CCC(c3noc4cc(F)ccc34)CC2)CC1
D(2) dopamine receptor
  Ki: 1270 nM
[1]
  Ki: > 10000 nM
[2]
  Ki: 265 nM

## CN(C)C(=O)N1CCC(CN2CCC(c3noc4cc(F)ccc34)CC2)CC1
D(2) dopamine receptor
  Ki: > 10000 nM
[1]
  Ki: > 10000 nM
[2]
  Ki: 569 nM

## O=S(=O)(c1ccc2ccccc2c1)N1CCC(CN2CCC(c3noc4cc(F)ccc34)CC2)CC1
D(2) dopamine receptor
  Ki: 1380 nM
[1]
  Ki: 1200 nM
[2]
  Ki: 32.6 nM

## O=S(=O)(c1cccs1)N1CCC(CN2CCC(c3noc4cc(F)ccc34)CC2)CC1
D(2) dopamine receptor
  Ki: 1290 nM
[1]
  Ki: 165 nM
[2]
  Ki: 455 nM

## O=C(c1ccccc1)N1CCC(CN2CCC(c3noc4cc(F)ccc34)CC2)CC1
D(2) dopamine receptor
  Ki: 1270 nM
[1]
  Ki: 599 nM
[2]
  Ki: 114 nM
